In patent publication US20240116985A1, “STAPLED PEPTIDES AND METHODS THEREOF” (priority 2020, published 2024):
Blank lines part the entries; values can stand above or below the compound they belong to.

Target: T1, full-length beta-Catenin (Uniprot ID P35222) (Homo sapiens, UniProt P35222)
T1 construct: 10 nM full-length beta-Catenin (Uniprot ID P35222)
T1 sequence (P35222 1-781): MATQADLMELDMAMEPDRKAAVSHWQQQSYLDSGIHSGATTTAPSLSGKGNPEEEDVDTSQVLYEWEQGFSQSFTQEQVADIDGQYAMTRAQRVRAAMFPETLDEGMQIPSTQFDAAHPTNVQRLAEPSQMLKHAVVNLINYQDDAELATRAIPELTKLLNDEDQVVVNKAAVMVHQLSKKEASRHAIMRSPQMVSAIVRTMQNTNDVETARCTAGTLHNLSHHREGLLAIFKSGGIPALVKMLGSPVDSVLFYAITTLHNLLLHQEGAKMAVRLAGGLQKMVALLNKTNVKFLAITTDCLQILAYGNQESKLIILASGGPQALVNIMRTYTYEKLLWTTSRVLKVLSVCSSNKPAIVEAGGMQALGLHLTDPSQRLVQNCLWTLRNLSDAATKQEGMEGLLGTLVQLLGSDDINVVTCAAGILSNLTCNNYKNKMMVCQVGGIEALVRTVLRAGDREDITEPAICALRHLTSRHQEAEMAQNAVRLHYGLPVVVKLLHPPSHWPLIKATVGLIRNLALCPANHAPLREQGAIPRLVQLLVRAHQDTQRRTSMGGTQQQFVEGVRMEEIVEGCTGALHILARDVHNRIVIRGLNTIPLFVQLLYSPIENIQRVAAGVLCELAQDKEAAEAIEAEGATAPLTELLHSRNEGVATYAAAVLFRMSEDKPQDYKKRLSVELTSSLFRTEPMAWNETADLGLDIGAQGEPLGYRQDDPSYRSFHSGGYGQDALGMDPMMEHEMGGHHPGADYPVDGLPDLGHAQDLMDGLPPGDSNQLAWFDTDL
Assay: Fluorescence polarization IC50 (beta-catenin / 5FAM-TCF4 10-53 competition)
Type: binding
Details: fluorescence polarization; read-out: beta-Catenin FP IC50

IC50: 29 nM
Structure (SMILES): CC(=O)N1CCC[C@]12CC=CCCCC1(CCCC=CCCCOC(=O)N3CC[C@@](C(=O)N[C@@H](Cc4ccsc4)C(=O)N[C@@H](Cc4csc5ccccc45)C(=O)N[C@@H](CCC(N)=O)C(N)=O)(C3)NC(=O)[C@H](CCO)NC(=O)[C@H](Cc3cccc(C(=O)O)c3)NC(=O)[C@H](C)NC(=O)[C@H](C)NC(=O)[C@H](Cc3ccc(O)cc3)NC(=O)[C@H](CC(=O)O)NC1=O)NC(=O)[C@H](CC(C)(C)C)NC(=O)[C@H](CC(=O)O)NC2=O (stereo partly drawn) [I-2124, Ac-PL3-Asp-Npg-B5-Asp-Tyr-Ala-Ala-3COOHF-Hse-PyrS2-3Thi-BztA-Gln-NH2]

IC50: 14 nM
Structure (SMILES): CC(=O)N1CCC[C@]12CC=CCCCC1(CCCC=CCCCOC(=O)N3CC[C@@](C(=O)N[C@@H](Cc4ccsc4)C(=O)N[C@@H](Cc4csc5ccccc45)C(=O)N[C@@H](CCC(N)=O)C(N)=O)(C3)NC(=O)[C@H](CC(C)C)NC(=O)[C@H](Cc3ccccc3)NC(=O)[C@H](C)NC(=O)[C@H](C)NC(=O)[C@H](CCN(CC(=O)O)C(=O)CN3CCOCC3)NC(=O)[C@H](CC(=O)O)NC1=O)NC(=O)[C@H](CC(C)(C)C)NC(=O)[C@H](CC(=O)O)NC2=O (stereo partly drawn) [I-2249, Ac-PL3-Asp-Npg-B5-Asp-[MorphAc]GAbu-Ala-Ala-Phe-Leu-PyrS2-3Thi-BztA-Gln-NH2]

IC50: 150 nM
Structure (SMILES): CC(=O)N1CCC[C@]12CCCCCC1(CCCCCCCCOC(=O)N3CC[C@@](C(=O)N[C@@H](Cc4ccsc4)C(=O)N[C@@H](Cc4csc5ccccc45)C(=O)N[C@@H](CCC(N)=O)C(N)=O)(C3)NC(=O)[C@H](CC(C)C)NC(=O)[C@H](Cc3ccccc3)NC(=O)[C@H](C)NC(=O)[C@H](C)NC(=O)[C@H](CC(=O)O)NC(=O)[C@H](CC(=O)O)NC1=O)NC(=O)[C@H](CC(C)(C)C)NC(=O)[C@H](CC(=O)O)NC2=O (stereo partly drawn) [I-1976, Ac-PL3-Asp-Npg-B4-Asp-Asp-Ala-Ala-Phe-Leu-PyrS3-3Thi-BztA-Gln-NH2]

IC50: 36 nM
Structure (SMILES): CC(=O)N1CCC[C@]12CC=CCCCC1(CCCC=CCCCOC(=O)N3CC[C@@](C(=O)N[C@@H](Cc4ccsc4)C(=O)N[C@@H](Cc4csc5ccccc45)C(=O)N[C@@H](CCC(N)=O)C(N)=O)(C3)NC(=O)[C@H](CC(N)=O)NC(=O)[C@H](Cc3cccc(C(=O)O)c3)NC(=O)[C@H](C)NC(=O)[C@H](C)NC(=O)[C@H](Cc3c[nH]c4ccccc34)NC(=O)[C@H](CC(=O)O)NC1=O)NC(=O)[C@H](CC(C)(C)C)NC(=O)[C@H](CC(=O)O)NC2=O (stereo partly drawn) [I-2127, Ac-PL3-Asp-Npg-B5-Asp-Trp-Ala-Ala-3COOHF-Asn-PyrS2-3Thi-BztA-Gln-NH2]

IC50: 1120 nM
Structure (SMILES): CC(C)C[C@H](NC(=O)[C@]12CCN(C1)C(=O)OCCCCCCCCC1(CCCCCCCCC(=O)N3CCC[C@@]3(C)C(=O)N[C@@H](CC(=O)O)C(=O)N1)C(=O)N[C@@H](C)C(=O)N[C@@H](CC(=O)O)C(=O)N[C@@H](Cc1cccc(C(=O)O)c1)C(=O)N[C@@H](C)C(=O)N[C@@H](C)C(=O)N[C@@H](Cc1ccccc1)C(=O)N2)C(=O)N[C@@H](Cc1ccsc1)C(=O)N[C@@H](Cc1csc2ccccc12)C(=O)N[C@@H](CCC(N)=O)C(N)=O (stereo partly drawn) [I-2604, 5hexenyl-MePro-Asp-B5-Ala-Asp-3COOHF-Ala-Ala-Phe-PyrS2-Leu-3Thi-BztA-Gln-NH2]

IC50: 5250 nM
Structure (SMILES): CC(=O)N1CCC[C@]12CC=CCCCC1(CCCC=CCOC(=O)N(C)CC[C@@](C)(C(=O)N[C@@H](Cc3ccsc3)C(=O)N[C@@H](Cc3csc4ccccc34)C(=O)N[C@@H](CCC(N)=O)C(N)=O)NC(=O)[C@H](CC(N)=O)NC(=O)[C@H](Cc3ccccc3)NC(=O)[C@H](C)NC(=O)[C@H](C)NC(=O)[C@H]([C@@H](C)O)NC(=O)[C@H](CC(N)=O)NC1=O)NC(=O)[C@H](CC(C)(C)C)NC(=O)[C@H](CC(=O)O)NC2=O (stereo partly drawn) [I-2213, Ac-PL3-Asp-Npg-B5-Asn-Thr-Ala-Ala-Phe-Asn-SdN-3Thi-BztA-Gln-NH2]

The next lines start with the compound.

Structure (SMILES): CC(=O)N1CCC[C@]12CCCCCCC1(CCCCCCCCOC(=O)N3CC[C@@](C(=O)N[C@@H](Cc4ccsc4)C(=O)N[C@@H](Cc4csc5ccccc45)C(=O)N[C@H](C(N)=O)C(C)C)(C3)NC(=O)[C@H](CC(C)C)NC(=O)[C@H](Cc3ccccc3)NC(=O)[C@H](C)NC(=O)[C@H](C)NC(=O)[C@H](CN(CC(=O)O)CC(F)(F)F)NC(=O)[C@H](CC(=O)O)NC1=O)NC(=O)[C@H](CC(C)(C)C)NC(=O)[C@H](CC(=O)O)NC2=O (stereo partly drawn) [I-1757, Ac-PL3-Asp-Npg-B5-Asp-TfeGA-Ala-Ala-Phe-Leu-PyrS2-3Thi-BztA-Val-NH2]
IC50: 449 nM

Structure (SMILES): CC(=O)N1CCC[C@]12CC=CCCCC1(CCCC=CCCCOC(=O)N3CC[C@@](C(=O)N[C@@H](Cc4ccsc4)C(=O)N[C@@H](Cc4csc5ccccc45)C(=O)N[C@@H](CCC(N)=O)C(N)=O)(C3)NC(=O)[C@H](CC(N)=O)NC(=O)[C@H](Cc3ccccc3)NC(=O)[C@H](C)NC(=O)[C@H](C)NC(=O)[C@H](CC(=O)O)NC(=O)[C@H](CC(=O)O)NC1=O)NC(=O)[C@H](CC(C)(C)C)NC(=O)[C@H](CCC(N)=O)NC2=O (stereo partly drawn) [I-1224, Ac-PL3-Gln-Npg-B5-Asp-Asp-Ala-Ala-Phe-Asn-PyrS2-3Thi-BztA-Gln-NH2]
IC50: 389 nM

Structure (SMILES): CCCC[C@@H]1NC(=O)[C@H](Cc2ccccc2)NC(=O)[C@H](C)NC(=O)[C@H](C)NC(=O)[C@H]([C@@H](C)O)NC(=O)[C@H](CC(N)=O)NC(=O)C2(CCCC=CCCCOC(=O)N3CC[C@@](C(=O)N[C@@H](Cc4ccsc4)C(=O)N[C@@H](Cc4csc5ccccc45)C(=O)N[C@@H](CCC(N)=O)C(N)=O)(C3)NC1=O)CCCC=CC[C@]1(CCCN1C(C)=O)C(=O)N[C@@H](CC(=O)O)C(=O)N[C@@H](CC(C)(C)C)C(=O)N2 (stereo partly drawn) [I-1619, Ac-PL3-Asp-Npg-B5-Asn-Thr-Ala-Ala-Phe-nLeu-PyrS2-3Thi-BztA-Gln-NH2]
IC50: 1290 nM

Structure (SMILES): CC(=O)N1CCC[C@]12CC=CCCCC1(CCCC=CCCCOC(=O)N3CC[C@@](C(=O)N[C@@H](Cc4ccsc4)C(=O)N[C@@H](Cc4csc5ccccc45)C(=O)N[C@@H](CCC(N)=O)C(N)=O)(C3)NC(=O)[C@H](CC(N)=O)NC(=O)[C@H](Cc3ccccc3)NC(=O)[C@H](C)NC(=O)[C@H](C)NC(=O)[C@H](CC(N)=O)NC(=O)[C@H]([C@@H](C)O)NC1=O)NC(=O)[C@H](CC(C)(C)C)NC(=O)[C@H](CC(=O)O)NC2=O (stereo partly drawn) [I-1559, Ac-PL3-Asp-Npg-B5-Thr-Asn-Ala-Ala-Phe-Asn-PyrS2-3Thi-BztA-Gln-NH2]
IC50: 9680 nM

Structure (SMILES): CC(=O)N1CCC[C@]12CC=CCCCC1(CCCC=CCCCOC(=O)N3CC[C@@](C(=O)N[C@@H](Cc4ccsc4)C(=O)N[C@@H](Cc4csc5ccccc45)C(=O)N[C@@H](CCC(N)=O)C(N)=O)(C3)NC(=O)[C@H](CC(N)=O)NC(=O)[C@H](Cc3ccccc3)NC(=O)[C@H](C)NC(=O)[C@H](C)NC(=O)[C@H](CC(N)=O)NC(=O)[C@H](CO)NC1=O)NC(=O)[C@H](CC(C)(C)C)NC(=O)[C@H](CC(=O)O)NC2=O (stereo partly drawn) [I-1561, Ac-PL3-Asp-Npg-B5-Ser-Asn-Ala-Ala-Phe-Asn-PyrS2-3Thi-BztA-Gln-NH2]
IC50: 2600 nM

Structure (SMILES): COc1cccc(C[C@@H]2NC(=O)[C@H](C)NC(=O)[C@H](CCCCNC(C)C)NC(=O)[C@H](CCC(N)=O)NC(=O)[C@H](CC(=O)O)NC(=O)C3(CCCC=CCCCOC(=O)N4CC[C@@](C(=O)N[C@@H](Cc5ccccc5)C(=O)N[C@@H](Cc5csc6ccccc56)C(=O)N[C@@H](CCO)C(N)=O)(C4)NC(=O)[C@H](CC(N)=O)NC2=O)CCCC=CC[C@]2(CCCN2C(C)=O)C(=O)N[C@@H](CC(N)=O)C(=O)N[C@@H](CC2CCCCC2)C(=O)N3)c1 (stereo partly drawn) [I-1926, Ac-PL3-Asn-Cha-B5-Asp-Gln-iPrLys-Ala-3OMeF-Asn-PyrS2-Phe-BztA-Hse-NH2]
IC50: 417 nM

Structure (SMILES): CC(=O)N1CCC[C@]12CCCCCCC1(CCCCCCCCOC(=O)N3CC[C@@](C(=O)N[C@@H](Cc4ccsc4)C(=O)N[C@@H](Cc4csc5ccccc45)C(=O)N[C@@H](CCC(N)=O)C(N)=O)(C3)NC(=O)[C@H](CC(C)C)NC(=O)[C@H](Cc3ccccc3)NC(=O)[C@H](C)NC(=O)[C@H](C)NC(=O)[C@H](CN(CC(=O)O)CC(F)(F)F)NC(=O)[C@H](CC(=O)O)NC1=O)NC(=O)[C@H](CC(C)(C)C)NC(=O)[C@H](CC(=O)O)NC2=O (stereo partly drawn) [I-1605, Ac-PL3-Asp-Npg-B5-Asp-TfeGA-Ala-Ala-Phe-Leu-PyrS2-3Thi-BztA-Gln-NH2]
IC50: 214 nM

Structure (SMILES): CC(=O)N1CCC[C@]12CC=CCCCC1(CCCC=CCCCOC(=O)N3CC[C@@](C(=O)N[C@@H](Cc4ccsc4)C(=O)N[C@@H](Cc4csc5ccccc45)C(=O)N[C@@H](CCC(N)=O)C(N)=O)(C3)NC(=O)[C@H](CC(C)C)NC(=O)[C@H](Cn3cc(CN4CCOCC4)nn3)NC(=O)[C@H](C)NC(=O)[C@H](C)NC(=O)[C@H](CN(CC(=O)O)CC(F)(F)F)NC(=O)[C@H](CC(=O)O)NC1=O)NC(=O)[C@H](CC(C)(C)C)NC(=O)[C@H](CC(=O)O)NC2=O (stereo partly drawn) [I-1858, Ac-PL3-Asp-Npg-B5-Asp-TfeGA-Ala-Ala-[MorphCH2]TriAzDap-Leu-PyrS2-3Thi-BztA-Gln-NH2]
IC50: 1110 nM
